The supplement of paper PMC10733146

Legend:
Assay in all cases: viability relative to DMSO control (fraction); higher = less drug effect (more viable cells)
Conditions in all cases: 48 h
Palbociclib = compound: CC(=O)c1c(C)c2cnc(Nc3ccc(N4CCNCC4)cn3)nc2n(C2CCCC2)c1=O [Palbociclib]
Method in brief: (§1)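 Viability is given as CellTiter-Glo luminescence relative to the median of 16 inner DMSO wells. Fresh or cryopreserved primary mononuclear tumour cells from blood, bone marrow (both Ficoll-isolated) or processed lymph node were plated at 4 × 10^4 cells per well in 384-well plates against five pre-plated compound concentrations, one well each. Incubation lasted 48 h at 37 °C and 5% CO2 in RPMI-1640 with penicillin/streptomycin, L-glutamine and human serum.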

EPZ-6438 = compound: CCN(c1cc(-c2ccc(CN3CCOCC3)cc2)cc(C(=O)NCc2c(C)cc(C)[nH]c2=O)c1C)C1CCOCC1 [EPZ-6438]
Method in brief: as §1

I-BET-762 = compound: CCNC(=O)C[C@@H]1N=C(c2ccc(Cl)cc2)c2cc(OC)ccc2-n2c(C)nnc21 [I-BET-762]
Method in brief: as §1

Barasertib = compound: CCN(CCCOc1ccc2c(Nc3cc(CC(=O)Nc4cccc(F)c4)[nH]n3)ncnc2c1)CCOP(=O)(O)O [Barasertib]
Method in brief: as §1

Chlorambucil = compound: O=C(O)CCCc1ccc(N(CCCl)CCCl)cc1 [Chlorambucil]
Method in brief: as §1

Roscovitine = compound: CC[C@H](CO)Nc1nc(NCc2ccccc2)c2ncn(C(C)C)c2n1 [Roscovitine]
Method in brief: as §1

Tofacitinib = compound: C[C@@H]1CCN(C(=O)CC#N)C[C@@H]1N(C)c1ncnc2[nH]ccc12 [Tofacitinib]
Method in brief: as §1

Etoposide = compound: COc1cc([C@@H]2c3cc4c(cc3[C@@H](O[C@@H]3O[C@@H]5CO[C@@H](C)O[C@H]5[C@H](O)[C@H]3O)[C@H]3COC(=O)[C@H]23)OCO4)cc(OC)c1O [Etoposide]
Method in brief: as §1

[1] = compound: O=C(Nc1ccc2[nH]nc(-c3ccncc3)c2c1)[C@@H]1CCN(CC(=O)N2CCN(c3ccc(-c4ncccn4)cc3)CC2)C1
Method in brief: as §1

[2] = compound: C[C@H]1C[C@@H](n2c(Nc3ccc(OC(F)(F)F)cc3)nc3cc(CCC(=O)O)ccc32)CC(C)(C)C1
Method in brief: as §1

Entospletinib = compound: c1cn2cc(-c3ccc4cn[nH]c4c3)nc(Nc3ccc(N4CCOCC4)cc3)c2n1 [Entospletinib]
Method in brief: as §1

Pomalidomide = compound: Nc1cccc2c1C(=O)N(C1CCC(=O)NC1=O)C2=O [Pomalidomide]
Method in brief: as §1

SGC 0946 = compound: CC(C)N(CCCNC(=O)Nc1ccc(C(C)(C)C)cc1)C[C@H]1O[C@@H](n2cc(Br)c3c(N)ncnc32)[C@H](O)[C@@H]1O [SGC 0946]
Method in brief: as §1

CPI-169 = compound: CCS(=O)(=O)N1CCC([C@@H](C)n2c(C)c(C(=O)NCc3c(OC)cc(C)[nH]c3=O)c3ccccc32)CC1 [CPI-169]
Method in brief: as §1

Thalidomide = compound: O=C1CCC(N2C(=O)c3ccccc3C2=O)C(=O)N1 [Thalidomide]
Method in brief: as §1

primary ALL patient cells (S088)
viability (Palbociclib; 0.024 µM): 0.877 | viability (Palbociclib; 0.12 µM): 0.767 | viability (Palbociclib; 0.6 µM): 0.654 | viability (Palbociclib; 3 µM): 0.481 | viability (Palbociclib; 15 µM): 0.108 | viability (EPZ-6438; 0.024 µM): 1.03 | viability (EPZ-6438; 0.12 µM): 1.03 | viability (EPZ-6438; 0.6 µM): 1.02 | viability (EPZ-6438; 3 µM): 0.928 | viability (EPZ-6438; 15 µM): 0.742 | viability (I-BET-762; 0.008 µM): 0.856 | viability (I-BET-762; 0.04 µM): 0.906 | viability (I-BET-762; 0.2 µM): 0.857 | viability (I-BET-762; 1 µM): 0.522 | viability (I-BET-762; 5 µM): 0.444 | viability (Barasertib; 0.0008 µM): 0.716 | viability (Barasertib; 0.004 µM): 0.61 | viability (Barasertib; 0.02 µM): 0.415 | viability (Barasertib; 0.1 µM): 0.614 | viability (Barasertib; 0.5 µM): 0.588 | viability (Chlorambucil; 0.032 µM): 1.02 | viability (Chlorambucil; 0.16 µM): 1 | viability (Chlorambucil; 0.8 µM): 0.981 | viability (Chlorambucil; 4 µM): 0.71 | viability (Chlorambucil; 20 µM): 0.267 | viability (Roscovitine; 0.032 µM): 0.619 | viability (Roscovitine; 0.16 µM): 0.669 | viability (Roscovitine; 0.8 µM): 0.615 | viability (Roscovitine; 4 µM): 0.607 | viability (Roscovitine; 20 µM): 0.319 | viability (Tofacitinib; 0.024 µM): 0.703 | viability (Tofacitinib; 0.12 µM): 0.707 | viability (Tofacitinib; 0.6 µM): 0.702 | viability (Tofacitinib; 3 µM): 0.78 | viability (Tofacitinib; 15 µM): 0.662 | viability (Etoposide; 0.032 µM): 0.996 | viability (Etoposide; 0.16 µM): 0.93 | viability (Etoposide; 0.8 µM): 0.856 | viability (Etoposide; 4 µM): 0.607 | viability (Etoposide; 20 µM): 0.216 | viability ([1]; 0.008 µM): 0.545 | viability ([1]; 0.04 µM): 0.445 | viability ([1]; 0.2 µM): 0.393 | viability ([1]; 1 µM): 0.341 | viability ([1]; 5 µM): 0.297 | viability ([2]; 0.024 µM): 0.471 | viability ([2]; 0.12 µM): 0.597 | viability ([2]; 0.6 µM): 0.43 | viability ([2]; 3 µM): 0.548 | viability ([2]; 15 µM): 0.573 | viability (Entospletinib; 0.024 µM): 1.01 | viability (Entospletinib; 0.12 µM): 1.06 | viability (Entospletinib; 0.6 µM): 0.954 | viability (Entospletinib; 3 µM): 0.986 | viability (Entospletinib; 15 µM): 1.02 | viability (Pomalidomide; 0.0032 µM): 0.934 | viability (Pomalidomide; 0.016 µM): 1.08 | viability (Pomalidomide; 0.08 µM): 1.15 | viability (Pomalidomide; 0.4 µM): 1.05 | viability (Pomalidomide; 2 µM): 1.1 | viability (SGC 0946; 0.024 µM): 0.722 | viability (SGC 0946; 0.12 µM): 0.733 | viability (SGC 0946; 0.6 µM): 0.667 | viability (SGC 0946; 3 µM): 0.681 | viability (SGC 0946; 15 µM): 0.289 | viability (CPI-169; 0.024 µM): 0.666 | viability (CPI-169; 0.12 µM): 0.704 | viability (CPI-169; 0.6 µM): 0.707 | viability (CPI-169; 3 µM): 0.632 | viability (CPI-169; 15 µM): 0.548 | viability (Thalidomide; 0.032 µM): 0.94 | viability (Thalidomide; 0.16 µM): 0.902 | viability (Thalidomide; 0.8 µM): 0.832 | viability (Thalidomide; 4 µM): 0.917 | viability (Thalidomide; 20 µM): 0.962

primary AML patient cells (S002)
viability (Palbociclib; 0.024 µM): 1.04 | viability (Palbociclib; 0.12 µM): 0.965 | viability (Palbociclib; 0.6 µM): 0.956 | viability (Palbociclib; 3 µM): 0.966 | viability (Palbociclib; 15 µM): 0.542 | viability (EPZ-6438; 0.024 µM): 1.18 | viability (EPZ-6438; 0.12 µM): 1.05 | viability (EPZ-6438; 0.6 µM): 0.999 | viability (EPZ-6438; 3 µM): 0.991 | viability (EPZ-6438; 15 µM): 0.884 | viability (I-BET-762; 0.008 µM): 0.876 | viability (I-BET-762; 0.04 µM): 0.899 | viability (I-BET-762; 0.2 µM): 0.662 | viability (I-BET-762; 1 µM): 0.412 | viability (I-BET-762; 5 µM): 0.352 | viability (Barasertib; 0.0008 µM): 0.856 | viability (Barasertib; 0.004 µM): 0.855 | viability (Barasertib; 0.02 µM): 0.834 | viability (Barasertib; 0.1 µM): 0.904 | viability (Barasertib; 0.5 µM): 0.848 | viability (Chlorambucil; 0.032 µM): 0.972 | viability (Chlorambucil; 0.16 µM): 0.848 | viability (Chlorambucil; 0.8 µM): 0.945 | viability (Chlorambucil; 4 µM): 0.622 | viability (Chlorambucil; 20 µM): 0.299 | viability (Roscovitine; 0.032 µM): 0.867 | viability (Roscovitine; 0.16 µM): 0.907 | viability (Roscovitine; 0.8 µM): 0.899 | viability (Roscovitine; 4 µM): 0.896 | viability (Roscovitine; 20 µM): 0.466 | viability (Tofacitinib; 0.024 µM): 0.794 | viability (Tofacitinib; 0.12 µM): 0.765 | viability (Tofacitinib; 0.6 µM): 0.82 | viability (Tofacitinib; 3 µM): 0.703 | viability (Tofacitinib; 15 µM): 0.656 | viability (Etoposide; 0.032 µM): 0.974 | viability (Etoposide; 0.16 µM): 1.08 | viability (Etoposide; 0.8 µM): 0.923 | viability (Etoposide; 4 µM): 0.955 | viability (Etoposide; 20 µM): 0.453 | viability ([1]; 0.008 µM): 0.618 | viability ([1]; 0.04 µM): 0.484 | viability ([1]; 0.2 µM): 0.426 | viability ([1]; 1 µM): 0.394 | viability ([1]; 5 µM): 0.39 | viability ([2]; 0.024 µM): 0.913 | viability ([2]; 0.12 µM): 0.893 | viability ([2]; 0.6 µM): 0.859 | viability ([2]; 3 µM): 0.876 | viability ([2]; 15 µM): 0.832 | viability (Entospletinib; 0.024 µM): 1.03 | viability (Entospletinib; 0.12 µM): 1.03 | viability (Entospletinib; 0.6 µM): 0.895 | viability (Entospletinib; 3 µM): 1.08 | viability (Entospletinib; 15 µM): 1.07 | viability (Pomalidomide; 0.0032 µM): 0.799 | viability (Pomalidomide; 0.016 µM): 1.14 | viability (Pomalidomide; 0.08 µM): 1.17 | viability (Pomalidomide; 0.4 µM): 0.843 | viability (Pomalidomide; 2 µM): 1.04 | viability (SGC 0946; 0.024 µM): 1.1 | viability (SGC 0946; 0.12 µM): 1.16 | viability (SGC 0946; 0.6 µM): 0.833 | viability (SGC 0946; 3 µM): 1.16 | viability (SGC 0946; 15 µM): 0.9 | viability (CPI-169; 0.024 µM): 1.12 | viability (CPI-169; 0.12 µM): 0.923 | viability (CPI-169; 0.6 µM): 0.962 | viability (CPI-169; 3 µM): 0.967 | viability (CPI-169; 15 µM): 0.785 | viability (Thalidomide; 0.032 µM): 1.03 | viability (Thalidomide; 0.16 µM): 0.935 | viability (Thalidomide; 0.8 µM): 0.93 | viability (Thalidomide; 4 µM): 0.927 | viability (Thalidomide; 20 µM): 0.912
